According to ChEMBL document CHEMBL3046027, “In vitro and in vivo antifungal activity of synthetic pure isothiocyanates against Sclerotinia sclerotiorum” (Pest Manag Sci, 2011):

Assays:
[1] = system: Sclerotinia sclerotiorum; test: Antifungal activity against Sclerotinia sclerotiorum assessed as inhibition of mycelial growth in contact phase at 715 umol/l measured at 20 degC after 5 days; type: functional; details: 120 h, read-out: GI
[2] = system: Sclerotinia sclerotiorum; test: Antifungal activity against Sclerotinia sclerotiorum assessed as inhibition of mycelial growth in contact phase at 920 umol/l measured at 20 degC after 5 days; type: functional; details: 120 h, read-out: GI
[3] = system: Sclerotinia sclerotiorum; test: In vivo antifungal Sclerotinia sclerotiorum in Pepper (Capsicum annuum L. cv. Sera Demre) assessed as inhibition of mycelial growth in volatile phase at 204 umol/L measured after 10 to 14 weeks; type: functional
[4] = system: Sclerotinia sclerotiorum; test: Antifungal activity against Sclerotinia sclerotiorum assessed as inhibition of germination in volatile phase at 1022 umol/l measured at 20 degC after 5 days; type: functional; details: 120 h
[5] = system: Sclerotinia sclerotiorum; test: Fungistatic activity in Sclerotinia sclerotiorum assessed as inhibition of mycelial growth in contact phase measured at 20 degC after 5 days; type: functional, organism-based; details: 120 h
[6] = system: Sclerotinia sclerotiorum; test: Antifungal activity against Sclerotinia sclerotiorum assessed as inhibition of mycelial growth in contact phase at 3065 umol/l measured at 20 degC after 5 days; type: functional; details: 120 h, read-out: GI
[7] = system: Sclerotinia sclerotiorum; test: Antifungal activity against Sclerotinia sclerotiorum assessed as inhibition of mycelial growth in volatile phase at 102 umol/l measured at 20 degC after 5 days; type: functional; details: 120 h, read-out: GI
[8] = system: Sclerotinia sclerotiorum; test: Antifungal activity against Sclerotinia sclerotiorum assessed as inhibition of mycelial growth in volatile phase at 51 umol/l measured at 20 degC after 5 days; type: functional; details: 120 h, read-out: GI
[9] = system: Sclerotinia sclerotiorum; test: Fungistatic activity in Sclerotinia sclerotiorum assessed as inhibition of mycelial growth in volatile phase measured at 20 degC after 5 days; type: functional, organism-based; details: 120 h
[10] = system: Sclerotinia sclerotiorum; test: Antifungal activity against Sclerotinia sclerotiorum assessed as inhibition of mycelial growth in volatile phase at 714 umol/l measured at 20 degC after 5 days; type: functional; details: 120 h, read-out: GI
[11] = system: Sclerotinia sclerotiorum; test: Fungitoxic activity in Sclerotinia sclerotiorum assessed as inhibition of mycelial growth in volatile phase at 1020 umol/l measured at 20 degC after 5 days relative to control; type: functional; details: 120 h, read-out: GI
[12] = system: Sclerotinia sclerotiorum; test: Antifungal activity against Sclerotinia sclerotiorum assessed as inhibition of germination in volatile phase at 102 umol/l measured at 20 degC after 5 days; type: functional; details: 120 h
[13] = system: Sclerotinia sclerotiorum; test: Fungistatic activity in Sclerotinia sclerotiorum assessed as inhibition of carpogenic germination in volatile phase at 51 umol/l measured at 20 degC after 5 days relative to control; type: functional; details: 120 h
[14] = system: Sclerotinia sclerotiorum; test: Fungistatic activity in Sclerotinia sclerotiorum assessed as inhibition of carpogenic germination in volatile phase at 1020 umol/l measured at 20 degC after 5 days relative to control; type: functional; details: 120 h
[15] = system: Sclerotinia sclerotiorum; test: In vivo antifungal Sclerotinia sclerotiorum in Pepper (Capsicum annuum L. cv. Sera Demre) assessed as inhibition of mycelial growth in volatile phase at 102 umol/L measured after 10 to 14 weeks; type: functional
[16] = system: Sclerotinia sclerotiorum; test: Antifungal activity against Sclerotinia sclerotiorum assessed as inhibition of mycelial growth in contact phase at 2043 umol/l measured at 20 degC after 5 days; type: functional; details: 120 h, read-out: GI
[17] = system: Sclerotinia sclerotiorum; test: Antifungal activity against Sclerotinia sclerotiorum assessed as inhibition of mycelial growth in volatile phase at 510 umol/l measured at 20 degC after 5 days; type: functional; details: 120 h, read-out: GI
[18] = system: Sclerotinia sclerotiorum; test: Fungistatic activity in Sclerotinia sclerotiorum assessed as inhibition of carpogenic germination in volatile phase at 102 umol/l measured at 20 degC after 5 days relative to control; type: functional; details: 120 h
[19] = system: Sclerotinia sclerotiorum; test: Antifungal activity against Sclerotinia sclerotiorum assessed as inhibition of germination in volatile phase at 307 umol/l measured at 20 degC after 5 days; type: functional; details: 120 h
[20] = system: Sclerotinia sclerotiorum; test: Antifungal activity against Sclerotinia sclerotiorum assessed as inhibition of mycelial growth in volatile phase at 1020 umol/l measured at 20 degC after 5 days; type: functional; details: 120 h, read-out: GI
[21] = system: Sclerotinia sclerotiorum; test: Fungistatic activity in Sclerotinia sclerotiorum assessed as inhibition of mycelial growth in volatile phase at 714 umol/l measured at 20 degC after 5 days relative to control; type: functional; details: 120 h, read-out: GI
[22] = system: Sclerotinia sclerotiorum; test: Antifungal activity against Sclerotinia sclerotiorum assessed as inhibition of germination in volatile phase at 511 umol/l measured at 20 degC after 5 days; type: functional; details: 120 h
[23] = system: Sclerotinia sclerotiorum; test: Fungistatic activity in Sclerotinia sclerotiorum assessed as inhibition of mycelial growth in contact phase at 3065 umol/l measured at 20 degC after 5 days relative to control; type: functional; details: 120 h, read-out: GI
[24] = system: Sclerotinia sclerotiorum; test: Fungistatic activity in Sclerotinia sclerotiorum assessed as inhibition of carpogenic germination in volatile phase at 510 umol/l measured at 20 degC after 5 days relative to control; type: functional; details: 120 h
[25] = system: Sclerotinia sclerotiorum; test: Antifungal activity against Sclerotinia sclerotiorum assessed as inhibition of germination in volatile phase at 51 umol/l measured at 20 degC after 5 days; type: functional; details: 120 h
[26] = system: Sclerotinia sclerotiorum; test: Antifungal activity against Sclerotinia sclerotiorum assessed as inhibition of mycelial growth in contact phase at 1022 umol/l measured at 20 degC after 5 days; type: functional; details: 120 h, read-out: GI

C=CCN=C=S [ALLYL ISOTHIOCYANATE]
inhibition of growth at 715 µM [1]: 32% | inhibition of growth at 920 µM [2]: 37.7% | inhibition in vivo at 204 µM [3]: 81.7% | inhibition at 1022 µM [4]: 0% | EC50 [5]: 1060 µM | inhibition of growth at 3065 µM [6]: 100% | inhibition of growth at 102 µM [7]: 50.7% | inhibition of growth at 51 µM [8]: 45.7% | EC50 [9]: 71.5 µM | inhibition of growth at 714 µM [10]: 100% | inhibition of growth at 1020 µM [11]: 100% | inhibition at 102 µM [12]: 0% | inhibition at 51 µM [13]: 60% | inhibition at 1020 µM [14]: 75% | inhibition in vivo at 102 µM [15]: 76.7% | inhibition of growth at 2043 µM [16]: 77% | inhibition of growth at 510 µM [17]: 87% | inhibition at 102 µM [18]: 67.5% | inhibition at 307 µM [19]: 0% | inhibition of growth at 1020 µM [20]: 100% | inhibition of growth at 714 µM [21]: 100% | inhibition at 511 µM [22]: 0% | inhibition of growth at 3065 µM [23]: 100% | inhibition at 510 µM [24]: 67.5% | inhibition at 51 µM [25]: 0% | inhibition of growth at 1022 µM [26]: 45.5%
